Measured values reported in patent US6111067A, “A-82846-type glycopeptide antibiotics” (Eli Lilly and Company, priority 1993, dated 2000).
Values after ≈ are worked out from the molar mass of the structure shown.

Experiments:
[1] = tested on: Streptococcus pyogenes C203; assay: In vitro antibacterial activity, agar-dilution MIC; format: cell-based
Protocol: (§1) The formula 1 compounds have in vitro and in vivo activity against Gram-positive pathogenic bacteria. The MIC's were determined by standard agar-dilution assays.

[2] = tested on: Haemophilus influenzae 76; assay: In vitro antibacterial activity, agar-dilution MIC; format: cell-based; details: Haemophilus influenzae 76, ampicillin-resistant strain, highest level tested 128 mcg/mL
Protocol: as §1

[3] = tested on: Staphylococcus epidermidis 222; assay: In vitro antibacterial activity, agar-dilution MIC; format: cell-based
Protocol: as §1

[4] = tested on: Staphylococcus aureus V41; assay: In vitro antibacterial activity, agar-dilution MIC; format: cell-based; details: Staphylococcus aureus V41, penicillin-resistant strain
Protocol: as §1

[5] = tested on: Klebsiella pneumoniae X26; assay: In vitro antibacterial activity, agar-dilution MIC; format: cell-based; details: highest level tested 128 mcg/mL
Protocol: as §1

[6] = tested on: Escherichia coli EC14; assay: In vitro antibacterial activity, agar-dilution MIC; format: cell-based; details: highest level tested 128 mcg/mL
Protocol: as §1

[7] = tested on: Haemophilus influenzae C.L.; assay: In vitro antibacterial activity, agar-dilution MIC; format: cell-based; details: ampicillin-sensitive strain, highest level tested 128 mcg/mL
Protocol: as §1

[8] = tested on: Staphylococcus aureus X400; assay: In vitro antibacterial activity, agar-dilution MIC; format: cell-based; details: Staphylococcus aureus X400, methicillin-resistant strain
Protocol: as §1

[9] = tested on: Streptococcus Group D X66; assay: In vitro antibacterial activity, agar-dilution MIC; format: cell-based
Protocol: as §1

[10] = tested on: Streptococcus Group D 2041; assay: In vitro antibacterial activity, agar-dilution MIC; format: cell-based
Protocol: as §1

[11] = tested on: Staphylococcus aureus X1.1; assay: In vitro antibacterial activity, agar-dilution MIC; format: cell-based
Protocol: as §1

[12] = tested on: Streptococcus pyogenes; assay: In vivo activity against experimentally-induced infection in mice (ED50); details: mice infected with Streptococcus pyogenes; subcutaneous doses 1 and 4 hours postinfection
Protocol: (§2) The formula 1 compounds have also shown in vivo antimicrobial activity against experimentally-induced infections in laboratory animals. When two doses of test compound were administered to mice experimentally infected with the test organism, the activity observed was measured as an ED50 value [effective dose in mg/kg to protect 50% of the test animals: see Warren Wick, et al., J. Bacteriol. 81, 233-235 (1961)]. ED50 values observed for illustrative compounds are given in Table III. | ^a mg/kg × 2; doses administered subcutaneously to mice 1 and 4 | hours postinfection

[13] = tested on: Streptococcus pneumoniae; assay: as above; details: mice infected with Streptococcus pneumoniae; subcutaneous doses 1 and 4 hours postinfection
Protocol: as §2

[14] = tested on: Staphylococcus aureus; assay: as above; details: mice infected with Staphylococcus aureus; subcutaneous doses 1 and 4 hours postinfection
Protocol: as §2

[15] = tested on: Staphylococcus aureus S13E; format: cell-based; details: agar dilution
Protocol: as §1

[16] = tested on: Streptococcus pneumoniae Park I; format: cell-based; details: agar dilution
Protocol: as §1

[17] = tested on: Staphylococcus epidermidis 270; assay: In vitro antibacterial activity, agar-dilution MIC; format: cell-based

Compound | MIC [1] [µg/mL] | MIC [2] | MIC [3] [µg/mL] | MIC [4] [µg/mL] | MIC [5] | MIC [6] | MIC [7] | MIC [8] [µg/mL] | MIC [9] [µg/mL] | MIC [10] [µg/mL] | MIC [11] [µg/mL] | ED50 Value [12] [mg/kg × 2] | ED50 Value [13] [mg/kg × 2] | ED50 Value [14] [mg/kg × 2] | MIC [15] [µg/mL] | MIC [16] [µg/mL] | MIC [17] [µg/mL]
CNC(CC(C)C)C(=O)NC1C(=O)NC(CC(N)=O)C(=O)NC2C(=O)NC3C(=O)NC(C(=O)NC(C(=O)O)c4cc(O)cc(O)c4-c4cc3ccc4O)C(OC3CC(C)(N)C(O)C(C)O3)c3ccc(cc3)Oc3cc2cc(c3OC2OC(CO)C(O)C(O)C2O)Oc2ccc(cc2Cl)C1O (stereo not shown) [Compound 2a] | 0.5 (≈ 0.353 µM) | -- (Not active at 128 mcg/mL, the highest level tested) | 1 (≈ 0.707 µM) | 1 (≈ 0.707 µM) | -- (Not active at 128 mcg/mL, the highest level tested) | -- (Not active at 128 mcg/mL, the highest level tested) | -- (Not active at 128 mcg/mL, the highest level tested) | 1 (≈ 0.707 µM) | 1 (≈ 0.707 µM) | 4 (≈ 2.83 µM) | 0.5 (≈ 0.353 µM) | 3.54 | 2.04 | 2.97 | 0.5 (≈ 0.353 µM) | 1 (≈ 0.707 µM) | 1 (≈ 0.707 µM)
CN[C@H](CC(C)C)C(=O)N[C@H]1C(=O)N[C@@H](CC(N)=O)C(=O)N[C@H]2C(=O)N[C@H]3C(=O)N[C@H](C(=O)N[C@H](C(=O)O)c4cc(O)cc(O)c4-c4cc3ccc4O)[C@H](O[C@H]3C[C@](C)(N)[C@@H](O)[C@H](C)O3)c3ccc(cc3)Oc3cc2cc(c3O)Oc2ccc(cc2Cl)[C@H]1O [Compound 2b] | 1 (≈ 0.798 µM) | -- (Not active at 128 mcg/mL, the highest level tested) | 2 (≈ 1.6 µM) | 1 (≈ 0.798 µM) | -- (Not active at 128 mcg/mL, the highest level tested) | -- (Not active at 128 mcg/mL, the highest level tested) | -- (Not active at 128 mcg/mL, the highest level tested) | 1 (≈ 0.798 µM) | 1 (≈ 0.798 µM) | 4 (≈ 3.19 µM) | 1 (≈ 0.798 µM) | 3.54 | 3.74 | 3.06 | 1 (≈ 0.798 µM) | 1 (≈ 0.798 µM) | 2 (≈ 1.6 µM)
CN[C@H](CC(C)C)C(=O)N[C@H]1C(=O)N[C@@H](CC(N)=O)C(=O)N[C@H]2C(=O)N[C@H]3C(=O)N[C@H](C(=O)N[C@H](C(=O)O)c4cc(O)cc(O)c4-c4cc3ccc4O)[C@H](O)c3ccc(cc3)Oc3cc2cc(c3O)Oc2ccc(cc2Cl)[C@H]1O [Compound 2c] | 4 (≈ 3.61 µM) | -- (Not active at 128 mcg/mL, the highest level tested) | 8 (≈ 7.21 µM) | 4 (≈ 3.61 µM) | -- (Not active at 128 mcg/mL, the highest level tested) | -- (Not active at 128 mcg/mL, the highest level tested) | -- (Not active at 128 mcg/mL, the highest level tested) | 8 (≈ 7.21 µM) | 8 (≈ 7.21 µM) | 16 (≈ 14.4 µM) | 4 (≈ 3.61 µM) | – | – | – | 4 (≈ 3.61 µM) | 4 (≈ 3.61 µM) | 4 (≈ 3.61 µM)
CN[C@H](CC(C)C)C(=O)N[C@H]1C(=O)N[C@@H](CC(N)=O)C(=O)N[C@H]2C(=O)N[C@H]3C(=O)N[C@H](C(=O)N[C@H](C(=O)O)c4cc(O)cc(O)c4-c4cc3ccc4O)[C@H](O[C@H]3C[C@](C)(N)[C@@H](O)[C@H](C)O3)c3ccc(c(Cl)c3)Oc3cc2cc(c3O[C@@H]2O[C@H](CO)[C@@H](O)[C@H](O)[C@H]2O)Oc2ccc(cc2Cl)[C@H]1O [Compound 3a] | 0.25 (≈ 0.173 µM) | -- (Not active at 128 mcg/mL, the highest level tested) | 0.5 (≈ 0.345 µM) | 0.25 (≈ 0.173 µM) | -- (Not active at 128 mcg/mL, the highest level tested) | -- (Not active at 128 mcg/mL, the highest level tested) | 64 µg/mL (≈ 44.2 µM) | 0.5 (≈ 0.345 µM) | 0.5 (≈ 0.345 µM) | 1 (≈ 0.69 µM) | 0.25 (≈ 0.173 µM) | 0.70 | 0.34 | 0.54 | 0.25 (≈ 0.173 µM) | 0.25 (≈ 0.173 µM) | 1 (≈ 0.69 µM)
CN[C@H](CC(C)C)C(=O)N[C@H]1C(=O)N[C@@H](CC(N)=O)C(=O)N[C@H]2C(=O)N[C@H]3C(=O)N[C@H](C(=O)N[C@H](C(=O)O)c4cc(O)cc(O)c4-c4cc3ccc4O)[C@H](O[C@H]3C[C@](C)(N)[C@@H](O)[C@H](C)O3)c3ccc(c(Cl)c3)Oc3cc2cc(c3O)Oc2ccc(cc2Cl)[C@H]1O [Compound 3b] | 0.25 (≈ 0.194 µM) | 64 µg/mL (≈ 49.7 µM) | 0.25 (≈ 0.194 µM) | 0.25 (≈ 0.194 µM) | -- (Not active at 128 mcg/mL, the highest level tested) | -- (Not active at 128 mcg/mL, the highest level tested) | 32 µg/mL (≈ 24.9 µM) | 0.5 (≈ 0.388 µM) | 0.5 (≈ 0.388 µM) | 1 (≈ 0.777 µM) | 0.125 (≈ 0.0971 µM) | 0.40 | 0.30 | 0.50 | 0.125 (≈ 0.0971 µM) | 0.25 (≈ 0.194 µM) | 0.5 (≈ 0.388 µM)
